Test system: MPTP-lesioned macaques
Experiment: Motor activity (total activity, high activity time and counts) in MPTP-lesioned macaques treated with URB597 and L-DOPA
Assay type: in vivo, cynomolgus monkeys (Macaca fascicularis)
Source text: In addition, a quantitative assessment of marmoset activity was made using computer-operated passive infra-red sensors, essentially as described previously (Maccarrone et al., 2003, J. Neurochem. 85: 1018-1025; Visanji et al., 2009 J Pharm Exp Ther 328: 276-283). A single sensor containing a hemispherical lens (Guardall, Mississauga, ON, Canada) was mounted 1.5 m above the top of each the observation cage. The sensor was positioned so that motion was detected throughout the entirety of the cage below. The signal was fed via an RS-232 input to a computer. […] Activity counts were logged in 1-min epochs for the entire 6 h duration of the experiment and cumulated over the peak dose period of 2-4 h.
Assessment of marmoset activity was further assessed over time by quantifying the average activity of counts per minute of the same animals obtained prior to administration of MPTP (i.e., in the normal state). Activity over the same period of 2-4 h was calculated and used to identify minutes of high activity (a minute when activity was above the average per minute of the animal prior to MPTP). High activity counts (the total counts obtained in high activity minutes) were cumulated. High activity time (the number of high activity minutes) were also calculated.
Six cynomolgus monkeys (Macaca fascicularis) were used in each experiment. Animals were group housed with up to 3 animals per cage. The cage sizes exceeded UK, NIH, EU and CCAC minimum size recommendations, 2.4 m×3.0 m×1.0 m. The housing room was subject to a 12 hour light-dark cycle (lights on 7 a.m.), temperature 20-25° C. in a room containing only animals of the same sex. Fresh fruit, primate pellets and water was available ad libitum unless specifically described in other examples below.
This experiment examined the behavioral responses to five doses of URB597 (0.01, 0.03, 0.1, 0.3 or 1 mg/kg, i.v.) or vehicle in combination with L-DOPA in six parkinsonian macaques previously lesioned with MPTP.
The protocols for housing and acclimatization for the six parkinsonian MPTP-lesioned macaques were as those detailed in Example 6.
After acclimatization, the macaques in the MPTP cohort were rendered parkinsonian by once daily subcutaneous injection of 0.2 mg/kg MPTP, administered for 8-12 days, until the first appearance of parkinsonism symptoms. After this time, a parkinsonian syndrome evolved to a moderate to marked level, over approximately 30 days, and stabilized. Additional administrations of MPTP were given to some animals to titrate to similar degrees of parkinsonism in individuals across the group.
Sixty days after commencing MPTP administration, L-DOPA (20 mg/kg) was administered orally twice daily for six months. L-DOPA was administered as Madopar™ (L-DOPA in combination with benserazide). This treatment led to the development of motor fluctuations, including dyskinesia and wearing-off.
Dose-finding studies were performed to define a dose of L-DOPA for each individual macaque that provided the best anti-parkinsonian effect achievable and elicited hyperactivity that was stable and reproducible for that animal, on successive L-DOPA administrations.
L-DOPA was administered p.o. at a dose volume of 1 ml/kg, as Madopar™ (L-DOPA in combination with benserazide in the ratio 4:1). The vehicle for Madopar™ was water. On days when animals were not subject to behavioral observations they received maintenance oral L-DOPA, Madopar™ (30 mg/kg, p.o.) at approximately 9:00 a.m.
URB597 was obtained from Cayman Chemical (product #10046) and was formulated in 0.9% sterile saline containing 1% DMSO (v/v) (Sigma-Aldrich product #D2650) and 2% (v/v) Tween-80 (Sigma-Aldrich product #P4780) for dosing at a volume of 1 ml/kg.
For each URB597 concentration tested, requisite amounts of URB597 were weighed into sterile 50 ml sterile polypropylene tubes (Falcon™) (e.g., for the 1 mg/kg doses, approximately 35 mg was weighed). […]

Structure (SMILES): NC(=O)c1cccc(-c2cccc(OC(=O)NC3CCCCC3)c2)c1 [URB597]
- hyperactive behavior compared with treatment with L-DOPA alone (0.3 and 1.0 mg/ml (so in the source) URB597 i.v. and L-DOPA p.o.): significant reduction
- effect on L-DOPA-induced hyperactivity (URB597 0.1 mg/kg i.v. + L-DOPA p.o.): ineffective
- total activity versus L-DOPA treatment only (URB597 0.3 mg and 1.0 mg/kg i.v. + L-DOPA p.o., at 3 hrs, RM-ANOVA): significant effect
- effect on L-DOPA-induced hyperactivity (URB597 0.3 mg/kg i.v. + L-DOPA p.o.): maximally effective
- levels of L-DOPA-induced hyperactivity, dose dependence (URB597 0.01-1 mg/kg i.v. + L-DOPA p.o.): dose-dependently reduced
- hyperactivity over the L-DOPA treatments alone (URB597 0.3 and 1.0 mg/kg i.v. + L-DOPA p.o., at 3 hrs post-administration of L-DOPA): lowered hyperactivity

— US20130150346A1, “Use of FAAH Inhibitors for Treating Parkinson's Disease and Restless Legs Syndrome” (Ironwood Pharmaceutical, Inc., priority 2010, published 2013)
